Assay results from patent US11266146B2, “Microbiocidal quinoline (thio)carboxamide derivatives” (SYNGENTA PARTICIPATIONS AG, priority 2017, dated 2022).

Key:
[1] = system: Magnaporthe grisea (Pyricularia oryzae); assay: microbe, parasite or virus in culture; format: cell-based; details: read-out: control of Magnaporthe grisea
Fusarium culmorum [2] = assay: microbe, parasite or virus in culture; format: cell-based; details: read-out: control of Fusarium culmorum
[3] = system: Botryotinia fuckeliana (Botrytis cinerea); assay: Botryotinia fuckeliana (Botrytis cinerea) / liquid culture (Gray mould); format: cell-based; details: growth inhibition photometrically 3-4 days after application, vs untreated control
[4] = system: Glomerella lagenarium (Colletotrichum lagenarium); assay: Glomerella lagenarium (Colletotrichum lagenarium) / liquid culture (Anthracnose); format: cell-based; details: Colletotrichum orbiculare, growth inhibition photometrically 3-4 days after application, vs untreated control
[5] = system: Monographella nivalis (Microdochium nivale); assay: Monographella nivalis (Microdochium nivale) / liquid culture (foot rot cereals); format: cell-based; details: growth inhibition photometrically 4-5 days after application, vs untreated control
Fusarium culmorum [6] = assay: whole plant or invertebrate; format: in vivo; details: in Triticum aestivum, 144 h, read-out: control of Fusarium culmorum

| Compound | inhibition of growth at 20 ppm [1] | melting point | inhibition of growth at 20 ppm (Fusarium culmorum [2]) | inhibition of growth at 20 ppm [3] | inhibition of growth at 20 ppm [4] | inhibition of growth at 20 ppm [5] | pest or weed control at 200 ppm (Fusarium culmorum [6]) |
| --- | --- | --- | --- | --- | --- | --- | --- |
| Cc1cc(C(F)(F)F)nn1CC(C)(CC(C)C)NC(=O)c1cnc2c(F)cccc2c1 (stereo not shown) [E16] | ≥ 80% | 140 to 144 °C |  |  |  |  |  |
| Cc1ccc(CC(C)(CC(C)C)NC(=O)c2cnc3c(F)cccc3c2)s1 (stereo not shown) [E13] | ≥ 80% |  | ≥ 80% | ≥ 80% | ≥ 80% |  |  |
| CON1CCC(CC(C)(CC(F)(F)F)NC(=O)c2cnc3c(C)cccc3c2)CC1 (stereo not shown) [E27] | ≥ 80% |  | ≥ 80% | ≥ 80% | ≥ 80% |  |  |
| CC(C)C[C@](C)(CN1CCCC(F)(F)C1)NC(=O)c1cnc2c(F)cccc2c1 (single isomer, unassigned) [F1] | ≥ 80% |  | ≥ 80% | ≥ 80% | ≥ 80% |  |  |
| Cc1nn(CC(C)(CC(C)C)NC(=O)c2cnc3c(F)cccc3c2)c(C)c1C (stereo not shown) [E20] |  | 140 to 144 °C | ≥ 80% | ≥ 80% | ≥ 80% | ≥ 80% |  |
| CC(CC1CCCOC1)(CC(F)(F)F)NC(=O)c1cnc2ccccc2c1 (stereo not shown) [E36] |  | 81 to 84 °C | ≥ 80% | ≥ 80% | ≥ 80% |  |  |
| CC(Cc1ccc(F)nc1)(CC(F)(F)F)NC(=O)c1cnc2c(F)cccc2c1 (stereo not shown) [E29] |  | 70 to 74 °C | ≥ 80% | ≥ 80% | ≥ 80% |  |  |
| CC(C)CC(C)(Cc1cnc(Cl)s1)NC(=O)c1cnc2c(F)cccc2c1 (stereo not shown) [E9] | ≥ 80% | 171 to 173 °C | ≥ 80% | ≥ 80% |  |  | ≥ 80% |
| Cc1cccc2cc(C(=O)NC(C)(CC3CCOCC3)CC(F)(F)F)cnc12 (stereo not shown) [E32] | ≥ 80% |  | ≥ 80% | ≥ 80% | ≥ 80% |  |  |
| CC(C)CC(C)(CN1CCSCC1)NC(=O)c1cnc2c(F)cccc2c1 (stereo not shown) [E7] | ≥ 80% |  | ≥ 80% | ≥ 80% |  |  |  |
| Cc1noc(CC(C)(CC(C)(C)C)NC(=O)c2cnc3c(F)cccc3c2)n1 (stereo not shown) [E2] | ≥ 80% |  | ≥ 80% | ≥ 80% | ≥ 80% |  |  |
| Cc1cccc2cc(C(=O)NC(C)(Cc3cccc(F)n3)CC(F)(F)F)cnc12 (stereo not shown) [E33] | ≥ 80% |  | ≥ 80% | ≥ 80% | ≥ 80% | ≥ 80% | ≥ 80% |
| CC(C)(C)CC(C)(Cc1ncco1)NC(=O)c1cnc2c(F)cccc2c1 (stereo not shown) [E11] |  |  | ≥ 80% | ≥ 80% | ≥ 80% |  |  |
| CC(C)CC(C)(Cc1ccc(Cl)s1)NC(=O)c1cnc2c(F)cccc2c1 (stereo not shown) [E14, N-[1-[(5-chloro-2-thienyl)methyl]-1,3-dimethyl-butyl]-8-fluoro-quinoline-3-carboxamide] | ≥ 80% | 126 to 128 °C | ≥ 80% | ≥ 80% | ≥ 80% | ≥ 80% | ≥ 80% |
| CC(C)C[C@@](C)(CN1CCCC(F)(F)C1)NC(=O)c1cnc2c(F)cccc2c1 (single isomer, unassigned) [F2] | ≥ 80% |  | ≥ 80% | ≥ 80% | ≥ 80% | ≥ 80% | ≥ 80% |
| Cc1nn(CC(C)(CC(C)C)NC(=O)c2cnc3c(F)cccc3c2)c(C)c1Cl (stereo not shown) [E19] |  | 134 to 138 °C | ≥ 80% | ≥ 80% | ≥ 80% | ≥ 80% |  |
| CC(CC1CCCOC1)(CC(F)(F)F)NC(=O)c1cnc2c(F)cccc2c1 (stereo not shown) [E38] | ≥ 80% | 85 to 88 °C | ≥ 80% | ≥ 80% | ≥ 80% | ≥ 80% |  |
| CC(C)CC(C)(CN1CCCC=N1)NC(=O)c1cnc2c(F)cccc2c1 (stereo not shown) [E24] |  |  |  | ≥ 80% | ≥ 80% | ≥ 80% | ≥ 80% |
| Cc1ncc(CC(C)(CC(C)C)NC(=O)c2cnc3c(F)cccc3c2)s1 (stereo not shown) [E8] | ≥ 80% | 146 to 150 °C | ≥ 80% | ≥ 80% | ≥ 80% |  |  |

| Compound | inhibition of growth at 20 ppm [1] | melting point | inhibition of growth at 20 ppm (Fusarium culmorum [2]) | inhibition of growth at 20 ppm [3] | inhibition of growth at 20 ppm [4] | inhibition of growth at 20 ppm [5] | pest or weed control at 200 ppm (Fusarium culmorum [6]) |
| --- | --- | --- | --- | --- | --- | --- | --- |
| Cc1cccc2cc(C(=O)NC(C)(CC3CCCOC3)CC(F)(F)F)cnc12 (stereo not shown) [E37] | ≥ 80% |  | ≥ 80% | ≥ 80% | ≥ 80% | ≥ 80% |  |
| Cc1c2ccccc2nn1CC(C)(CC(C)C)NC(=O)c1cnc2c(F)cccc2c1 (stereo not shown) [E17] |  |  | ≥ 80% | ≥ 80% |  | ≥ 80% |  |
| Cc1nn(CC(C)(CC(C)C)NC(=O)c2cnc3c(F)cccc3c2)c2ccccc12 (stereo not shown) [E18] |  |  | ≥ 80% | ≥ 80% | ≥ 80% |  |  |
| CC(C)CC(C)(CN1CCC(F)(F)CC1)NC(=O)c1cnc2c(F)cccc2c1 (stereo not shown) [E5] | ≥ 80% |  | ≥ 80% | ≥ 80% | ≥ 80% |  |  |
| Cc1cc(C)n(CC(C)(CC(C)C)NC(=O)c2cnc3c(F)cccc3c2)n1 (stereo not shown) [E21] | ≥ 80% |  | ≥ 80% | ≥ 80% | ≥ 80% | ≥ 80% |  |
| CC(C)CC(C)(CN1CCCC(F)(F)C1)NC(=O)c1cnc2c(F)cccc2c1 (stereo not shown) [E3] | ≥ 80% |  | ≥ 80% | ≥ 80% | ≥ 80% |  | ≥ 80% |
| CON1CCC(CC(C)(CC(F)(F)F)NC(=O)c2cnc3c(F)cccc3c2)CC1 (stereo not shown) [E28] |  | 76 to 86 °C | ≥ 80% | ≥ 80% | ≥ 80% |  |  |
| CC(Cc1cccc(F)n1)(CC(F)(F)F)NC(=O)c1cnc2c(F)cccc2c1 (stereo not shown) [E34] | ≥ 80% |  | ≥ 80% | ≥ 80% | ≥ 80% |  | ≥ 80% |
| CC(C)CC(C)(CN1CCC(=C(F)F)CC1)NC(=O)c1cnc2c(F)cccc2c1 (stereo not shown) [E4] | ≥ 80% |  | ≥ 80% | ≥ 80% | ≥ 80% |  |  |
| CC(C)CC(C)(Cc1cccs1)NC(=O)c1cnc2c(F)cccc2c1 (stereo not shown) [E12] | ≥ 80% |  | ≥ 80% | ≥ 80% | ≥ 80% |  | ≥ 80% |
| CC1=NN(CC(C)(CC(C)C)NC(=O)c2cnc3c(F)cccc3c2)CCC1 (stereo not shown) [E23] |  |  | ≥ 80% | ≥ 80% | ≥ 80% | ≥ 80% |  |
| Cc1cc(C(F)(F)F)n(CC(C)(CC(C)C)NC(=O)c2cnc3c(F)cccc3c2)n1 (stereo not shown) [E15] | ≥ 80% |  | ≥ 80% |  | ≥ 80% |  | ≥ 80% |
| CC(CC1CCOCC1)(CC(F)(F)F)NC(=O)c1cnc2ccccc2c1 (stereo not shown) [E31] |  |  |  | ≥ 80% |  |  |  |
| Cc1cnc(CC(C)(CC(C)(C)C)NC(=O)c2cnc3c(F)cccc3c2)o1 (stereo not shown) [E1] |  |  | ≥ 80% | ≥ 80% | ≥ 80% | ≥ 80% |  |
| CC(Cc1cccc(F)n1)(CC(F)(F)F)NC(=O)c1cnc2ccccc2c1 (stereo not shown) [E35] |  | 109 to 111 °C | ≥ 80% | ≥ 80% | ≥ 80% |  | ≥ 80% |
| CC(C)CC(C)(CN1CCCCO1)NC(=O)c1cnc2c(F)cccc2c1 (stereo not shown) [E6] | ≥ 80% |  | ≥ 80% | ≥ 80% | ≥ 80% | ≥ 80% | ≥ 80% |
| CC(Cc1ccnc(F)c1)(CC(F)(F)F)NC(=O)c1cnc2c(F)cccc2c1 (stereo not shown) [E30] | ≥ 80% | 136 to 142 °C | ≥ 80% | ≥ 80% |  |  | ≥ 80% |
| CON1CCC(CC(C)(CC(F)(F)F)NC(=O)c2cnc3ccccc3c2)CC1 (stereo not shown) [E26] | ≥ 80% |  | ≥ 80% | ≥ 80% | ≥ 80% |  | ≥ 80% |
| CC(CC1CCOCC1)(CC(F)(F)F)NC(=O)c1cnc2c(F)cccc2c1 (stereo not shown) [E25] |  | 150 to 151 °C | ≥ 80% | ≥ 80% | ≥ 80% |  |  |
